Reference: patent publication US20120208809A1, “9H-PYRROLO[2,3-B: 5,4-C'] DIPYRIDINE AZACARBOLINE DERIVATIVES, PREPARATION THEREOF, AND THERAPEUTIC USE THEREOF” (SANOFI, priority 2009, published 2012)

Key:
Pim-1 = target: T1, Pim-1 (Homo sapiens, UniProt P11309); assay: TR-FRET assay of Pim kinase activity (phosphorylation of Bad Ser112), Pim-1; format: biochemical; details: ATP 40 μM, read-out: IC50 Pim1
T1 construct: full-length human recombinant His6-labelled Pim-1, Pim-2 or Pim-3 protein; His6; made in house
T1 sequence (P11309 whole entry): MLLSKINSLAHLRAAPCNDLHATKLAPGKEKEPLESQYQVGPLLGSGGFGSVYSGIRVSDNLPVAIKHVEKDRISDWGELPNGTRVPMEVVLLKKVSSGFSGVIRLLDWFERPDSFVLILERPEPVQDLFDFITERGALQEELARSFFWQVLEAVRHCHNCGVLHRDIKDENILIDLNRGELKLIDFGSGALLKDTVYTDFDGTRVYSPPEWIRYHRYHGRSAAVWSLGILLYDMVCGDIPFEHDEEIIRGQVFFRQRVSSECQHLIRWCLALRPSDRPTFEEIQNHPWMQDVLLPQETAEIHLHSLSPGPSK
Protocol: (§1) In order to determine the inhibition of Pim kinase activity, the compounds of the invention are tested in accordance with a routinely-used in-vitro TR-FRET assay (“Time Resolved-Fluorescence Resonance Energy Transfer”). […] For the assay, the following reagents are used:
(§2) Pim kinase—full-length human recombinant His6-labelled Pim-1, Pim-2 or Pim-3 protein (prepared according to J. Mol. Biol. (2005) 348, 183-193); Bad—full-length human recombinant His6-labelled Bad protein (prepared according to J. Mol. Biol. (2005) 348, 183-193); α-His6-APC—mouse monoclonal antibody conjugated to allophycocyanine SureLight™ directed against the His6 label (Perkin-Elmer, No. AD0059H, Waltham, Mass., United States); α-P˜Bad-Eu—mouse monoclonal antibody (Cell Signaling Technology #9296B, Danvers, Mass., United States) directed against phosphoBad (Ser112) (7E11) labelled on request by Perkin-Elmer with the reagent LANCE™ Eu-W1024.
(§3) The assay is based on the LANCE™ technology from Perkin-Elmer: the Eu-labelled antibody binds to phospho-Ser112 and generates a TR-FRET signal by interaction with the […] antibody directed against His6, bound to the His6 label of Bad. The TR-FRET signal is detected using a SpectraMax M5 plate reader (Molecular Devices) with the following settings: λex=340 nm, λem1=615 nm, λem2=665 nm. The ratio of the fluorescence signal at 665 nm to the fluorescence signal at 615 nm is used as the signal reading for the IC50 (calculations based on the 4-parameter logistic model). The assay is performed in 384-well format; the liquid manipulations are performed using a Beckmann 3000 liquid manipulation station. The test compounds are tested at 10 concentration points in duplicate; the highest concentration of compound is typically equal to 30 μM. The ATP concentration is equal to 40 μM.

Pim-2 = target: T2, Pim-2 (Homo sapiens, UniProt Q9P1W9); assay: TR-FRET assay of Pim kinase activity (phosphorylation of Bad Ser112), Pim-2; format: biochemical; details: ATP 40 μM, read-out: IC50 Pim2
T2 construct: full-length human recombinant His6-labelled Pim-1, Pim-2 or Pim-3 protein; His6; made in house
T2 sequence (Q9P1W9 whole entry): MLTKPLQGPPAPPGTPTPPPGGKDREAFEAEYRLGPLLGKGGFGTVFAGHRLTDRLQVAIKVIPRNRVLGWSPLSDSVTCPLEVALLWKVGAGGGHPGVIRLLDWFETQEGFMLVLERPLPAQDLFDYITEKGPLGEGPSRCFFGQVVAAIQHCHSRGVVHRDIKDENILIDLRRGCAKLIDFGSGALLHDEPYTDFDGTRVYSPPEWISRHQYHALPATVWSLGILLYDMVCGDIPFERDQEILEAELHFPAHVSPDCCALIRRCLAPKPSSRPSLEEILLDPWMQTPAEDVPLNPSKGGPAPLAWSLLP
Protocol: as §1, §2, §3

Pim-3 = target: T3, Pim-3 (Homo sapiens, UniProt Q86V86); assay: TR-FRET assay of Pim kinase activity (phosphorylation of Bad Ser112), Pim-3; format: biochemical; details: ATP 40 μM, read-out: IC50 Pim3
T3 construct: full-length human recombinant His6-labelled Pim-1, Pim-2 or Pim-3 protein; His6; made in house
Protocol: as §1, §2, §3

CDK1 = CDK1 (Homo sapiens, UniProt P06493); assay: Biochemical results, IC50 CDK1
Sequence of CDK1 (P06493 whole entry, species assumed): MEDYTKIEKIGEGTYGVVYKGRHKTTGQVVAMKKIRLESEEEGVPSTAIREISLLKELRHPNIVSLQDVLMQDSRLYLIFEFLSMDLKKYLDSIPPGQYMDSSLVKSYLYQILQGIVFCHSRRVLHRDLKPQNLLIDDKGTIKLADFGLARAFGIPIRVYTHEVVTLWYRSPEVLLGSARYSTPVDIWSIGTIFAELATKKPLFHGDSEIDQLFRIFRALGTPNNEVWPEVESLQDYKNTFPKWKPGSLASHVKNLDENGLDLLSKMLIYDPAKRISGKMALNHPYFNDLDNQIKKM
Sequence of CDK1 (P14635 whole entry partner, species assumed): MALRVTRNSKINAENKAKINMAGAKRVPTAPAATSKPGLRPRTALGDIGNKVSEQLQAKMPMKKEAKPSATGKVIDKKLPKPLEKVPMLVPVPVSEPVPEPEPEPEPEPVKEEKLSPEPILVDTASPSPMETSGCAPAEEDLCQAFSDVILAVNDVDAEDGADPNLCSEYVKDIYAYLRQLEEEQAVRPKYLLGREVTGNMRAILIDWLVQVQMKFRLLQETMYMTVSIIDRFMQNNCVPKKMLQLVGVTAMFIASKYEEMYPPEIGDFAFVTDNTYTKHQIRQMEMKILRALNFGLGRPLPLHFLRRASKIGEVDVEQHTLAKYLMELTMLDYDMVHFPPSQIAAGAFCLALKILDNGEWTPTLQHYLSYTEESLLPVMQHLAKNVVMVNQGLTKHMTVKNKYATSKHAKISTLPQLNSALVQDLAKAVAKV

PLK1 = PLK1 (Homo sapiens, UniProt P53350); assay: Biochemical results, IC50 PLK1
Sequence of PLK1 (P53350 whole entry, species assumed): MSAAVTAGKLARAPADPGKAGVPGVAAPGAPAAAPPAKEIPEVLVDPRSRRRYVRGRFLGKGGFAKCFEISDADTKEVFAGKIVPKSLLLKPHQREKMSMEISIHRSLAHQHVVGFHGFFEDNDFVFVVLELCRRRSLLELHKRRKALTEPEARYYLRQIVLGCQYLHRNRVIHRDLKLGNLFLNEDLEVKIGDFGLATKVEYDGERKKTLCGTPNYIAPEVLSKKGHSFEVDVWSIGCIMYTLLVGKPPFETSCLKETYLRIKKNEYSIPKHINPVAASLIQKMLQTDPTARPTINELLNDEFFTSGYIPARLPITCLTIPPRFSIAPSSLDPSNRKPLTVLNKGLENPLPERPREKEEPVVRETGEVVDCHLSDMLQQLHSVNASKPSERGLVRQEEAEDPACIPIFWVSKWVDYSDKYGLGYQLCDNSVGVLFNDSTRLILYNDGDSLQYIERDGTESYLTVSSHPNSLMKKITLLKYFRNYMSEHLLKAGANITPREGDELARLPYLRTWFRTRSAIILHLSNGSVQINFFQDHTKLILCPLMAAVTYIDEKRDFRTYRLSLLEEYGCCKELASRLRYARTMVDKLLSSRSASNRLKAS

SMILES	IC50 (Pim-1)	IC50 (Pim-2)	IC50 (Pim-3)	IC50 (CDK1)	IC50 (PLK1)
O=C(c1ccc(-c2c(F)cnc3[nH]c4cnc(-c5cccnc5)cc4c23)cc1)N1CCOCC1 [Example 13, {4-[3-fluoro-6-(pyridin-3-yl)-9H-pyrrolo[2,3-b:5,4-c′]dipyridin-4-yl]phenyl}(morpholin-4-yl)methanone]	< 100 nM	1000 to 5000 nM	100 to 1000 nM	–	–
COCCNC(=O)c1ccc(-c2c(F)cnc3[nH]c4cnc(-c5cccnc5)cc4c23)cc1 [Example 14, 4-[3-fluoro-6-(pyridin-3-yl)-9H-pyrrolo[2,3-b:5,4-c′]dipyridin-4-yl]-N-(2-methoxyethyl)benzamide]	< 100 nM	1000 to 5000 nM	100 to 1000 nM	–	–
O=C(c1cccc(-c2c(F)cnc3[nH]c4cnc(-c5cccnc5)cc4c23)c1)N1CCOCC1 [Example 15, {3-[3-fluoro-6-(pyridin-3-yl)-9H-pyrrolo[2,3-b:5,4-c′]dipyridin-4-yl]phenyl}(morpholin-4-yl)methanone]	100 to 1000 nM	> 5000 nM	1000 to 5000 nM	–	–
CN1CCN(C(=O)c2ccc(-c3c(F)cnc4[nH]c5cnc(-c6cccnc6)cc5c34)cc2)CC1 [Example 16, {4-[3-fluoro-6-(pyridin-3-yl)-9H-pyrrolo[2,3-b:5,4-c′]dipyridin-4-yl]phenyl}(4-methylpiperazin-1-yl)methanone]	< 100 nM	1000 to 5000 nM	100 to 1000 nM	–	–
COCCCNC(=O)c1ccc(-c2c(F)cnc3[nH]c4cnc(-c5cccnc5)cc4c23)cc1 [Example 17, 4-[3-fluoro-6-(pyridin-3-yl)-9H-pyrrolo[2,3-b:5,4-c′]dipyridin-4-yl]-N-(3-methoxypropyl)benzamide]	< 100 nM	1000 to 5000 nM	100 to 1000 nM	–	–
O=C(NCCNCCO)c1ccc(-c2c(F)cnc3[nH]c4cnc(-c5cccnc5)cc4c23)cc1 [Example 27, 4-[3-fluoro-6-(pyridin-3-yl)-9H-pyrrolo[2,3-b:5,4-c′]dipyridin-4-yl]-N-{2-[(2-hydroxyethyl)amino]ethyl}benzamide]	< 100 nM	< 100 nM	< 100 nM	1000 to 5000 nM	100 to 1000 nM
O=C(NCc1nnn[nH]1)c1ccc(-c2c(F)cnc3[nH]c4cnc(-c5cccnc5)cc4c23)cc1 [Example 45, 4-[3-fluoro-6-(pyridin-3-yl)-9H-pyrrolo[2,3-b:5,4-c′]dipyridin-4-yl]-N-(1H-tetrazol-5-ylmethyl)benzamide]	100 to 1000 nM	> 5000 nM	100 to 1000 nM	100 to 1000 nM	< 100 nM
CN(C)[C@@H]1CCN(C(=O)c2ccc(-c3c(F)cnc4[nH]c5cnc(-c6cccnc6)cc5c34)cc2)C1 [Example 46, [(3R)-3-(dimethylamino)pyrrolidin-1-yl]{4-[3-fluoro-6-(pyridin-3-yl)-9H-pyrrolo[2,3-b:5,4-c′]dipyridin-4-yl]phenyl}methanone]	< 100 nM	1000 to 5000 nM	< 100 nM	100 to 1000 nM	100 to 1000 nM
CN1C[C@@H]2CCN(C(=O)c3ccc(-c4c(F)cnc5[nH]c6cnc(-c7cccnc7)cc6c45)cc3)[C@@H]2C1 [Example 47, {4-[3-fluoro-6-(pyridin-3-yl)-9H-pyrrolo[2,3-b:5,4-c′]dipyridin-4-yl]phenyl}[(3aS,6aS)-5-methylhexahydropyrrolo[3,4-b]pyrrol-1(2H)-yl]methanone]	< 100 nM	< 100 nM	< 100 nM	100 to 1000 nM	100 to 1000 nM
CC(=O)NCCNC(=O)c1ccc(-c2c(F)cnc3[nH]c4cnc(-c5cccnc5)cc4c23)cc1 [Example 48, N-[2-(acetylamino)ethyl]-4-[3-fluoro-6-(pyridin-3-yl)-9H-pyrrolo[2,3-b:5,4-c′]dipyridin-4-yl]benzamide]	< 100 nM	1000 to 5000 nM	100 to 1000 nM	100 to 1000 nM	< 100 nM
O=C(NCCCN1CCCC1=O)c1ccc(-c2c(F)cnc3[nH]c4cnc(-c5cccnc5)cc4c23)cc1 [Example 49, 4-[3-fiuoro-6-(pyridin-3-yl)-9H-pyrrolo[2,3-b:5,4-c′]dipyridin-4-yl]-N-[3-(2-oxopyrrolidin-1-yl)propyl]benzamide]	100 to 1000 nM	> 5000 nM	100 to 1000 nM	1000 to 5000 nM	100 to 1000 nM
O=C(NCCNc1ccccc1)c1ccc(-c2c(F)cnc3[nH]c4cnc(-c5cccnc5)cc4c23)cc1 [Example 50, 4-[3-fluoro-6-(pyridin-3-yl)-9H-pyrrolo[2,3-b:5,4-c′]dipyridin-4-yl]-N-[2-(phenylamino)ethyl]benzamide]	100 to 1000 nM	> 5000 nM	100 to 1000 nM	100 to 1000 nM	< 100 nM
CCN1CCCC1CNC(=O)c1ccc(-c2c(F)cnc3[nH]c4cnc(-c5cccnc5)cc4c23)cc1 (stereo not drawn) [Example 51, N-[(1-ethylpyrrolidin-2-yl)methyl]-4-[3-fluoro-6-(pyridin-3-yl)-9H-pyrrolo[2,3-b:5,4-c′]dipyridin-4-yl]benzamide]	< 100 nM	100 to 1000 nM	< 100 nM	1000 to 5000 nM	100 to 1000 nM
CCN1CCC[C@H]1CNC(=O)c1ccc(-c2c(F)cnc3[nH]c4cnc(-c5cccnc5)cc4c23)cc1 [Example 53, N-{[(2S)-1-ethylpyrrolidin-2-yl]methyl}-4-[3-fluoro-6-(pyridin-3-yl)-9H-pyrrolo[2,3-b:5,4-c′]dipyridin-4-yl]benzamide]	< 100 nM	100 to 1000 nM	< 100 nM	1000 to 5000 nM	100 to 1000 nM
N[C@@H]1CCCC[C@H]1NC(=O)c1ccc(-c2c(F)cnc3[nH]c4cnc(-c5cccnc5)cc4c23)cc1 [Example 83, N-[(1R,2R)-2-aminocyclohexyl]-4-[3-fluoro-6-(pyridin-3-yl)-9H-pyrrolo[2,3-b:5,4-c′]dipyridin-4-yl]benzamide]	< 100 nM	< 100 nM	< 100 nM	–	–
N[C@H]1CCC[C@@H]1NC(=O)c1ccc(-c2c(F)cnc3[nH]c4cnc(-c5cccnc5)cc4c23)cc1 [Example 85, N-[(1S,2S)-2-aminocyclopentyl]-4-[3-fluoro-6-(pyridin-3-yl)-9H-pyrrolo[2,3-b:5,4-c′]dipyridin-4-yl]benzamide]	< 100 nM	< 100 nM	< 100 nM	–	–
N[C@@H]1CCC[C@H]1NC(=O)c1ccc(-c2c(F)cnc3[nH]c4cnc(-c5cccnc5)cc4c23)cc1 [Example 86, N-[(1R,2R)-2-aminocyclopentyl]-4-[3-fluoro-6-(pyridin-3-yl)-9H-pyrrolo[2,3-b:5,4-c′]dipyridin-4-yl]benzamide]	< 100 nM	< 100 nM	< 100 nM	–	–
CN(C)CCNC(=O)c1ccc(-c2c(F)cnc3[nH]c4cnc(-c5cccnc5)cc4c23)cn1 [Example 112, N-[2-(dimethylamino)ethyl]-5-[3-fluoro-6-(pyridin-3-yl)-9H-pyrrolo[2,3-b:5,4-c′]dipyridin-4-yl]pyridine-2-carboxamide]	100 to 1000 nM	1000 to 5000 nM	100 to 1000 nM	–	–
CN(C)CCNC(=O)c1ccc(-c2c(F)cnc3[nH]c4cnc(-c5cccnc5)cc4c23)cc1F [Example 113, N-[2-(dimethylamino)ethyl]-2-fluoro-4-[3-fluoro-6-(pyridin-3-yl)-9H-pyrrolo[2,3-b:5,4-c′]dipyridin-4-yl]benzamide]	< 100 nM	100 to 1000 nM	< 100 nM	–	–
